The subject of assay [1] is cirrhotic patients with HE. The experiment in a line: Comparison within the HE group: cognitive battery (PHES, block design, ICT) (Example 1). The settings on record: HE patients on therapy, mean ± SD. The format is in vivo, human. How it is done: All subjects underwent a mini-mental status exam and only those scoring above 25 were included in the full study (11). Participants then underwent a 24-hour dietary recall. Subsequently a recommended cognitive battery consisting of the following tests was administered to the cirrhotic patients; (a) Psychometric hepatic encephalopathy score (PHES), (b) block design test (BDT: subjects are required to replicate standardized designs with given blocks in a timed manner. The score is based on the designs correctly copied) and (c) Inhibitory control test. [This is a 15 minute computerized test. Subjects are instructed to respond to alternating presentations of X and Y on the screen (targets) while inhibiting response when X and Y are not alternating (lures)] (3, 41). The PHES consists of 5 tests: number connection test-A/B (NCT-A/B: subjects are asked to “join the dots” between numbers or numbers and alphabets in a timed fashion and the number of seconds required is the outcome), digit symbol (DST: subjects are required to copy corresponding figures from a given list within 2 minutes and the number correctly copied is the result), line drawing [LDTt (time) and LDTe (errors): subjects are required to trace a line between two parallel lines and balance between speed and accuracy. Time required and the number of times the subject's line strays beyond the marked lines (errors) are recorded] and serial dotting (SDT, subjects are asked to dot the center of a group of blank circles and the time required is the outcome)]. The PHES is a validated battery for cognitive dysfunction in cirrhosis and tests for psychomotor speed, visuo-motor coordination, attention and set-shifting(32). The BDT tests for visuo-motor coordination. The ICT is a validated computerized test of attention, psychomotor speed, response inhibition and working memory. A high score on BDT, DST and ICT targets and a low score on the rest of the tests indicates good cognitive performance. Cirrhotic patients also underwent serum collection for inflammatory cytokines testing for innate immunity [IL-1b, IL-6, TNF-α (tumor necrosis factor-alpha)], Th1 response ([IFN-γ (interferon-gamma) and IL-2], Th2 response (IL-4, IL-10, IL-13], Th17 response (IL-17 and IL-23), and endotoxin. These were analyzed in duplicate by multiplex bead-based sandwich ELISA and LAL assay for endotoxin using published techniques by AssayGate Inc, Ijamsville, Md. (4, 17, 45).
The cirrhosis group was divided into those with and without HE and were compared. Data from the significant variables between HE and non-HE groups were combined in a MANOVA model. Within HE patients, comparison was made between those on lactulose alone to those with lactulose and rifaximin. Microbiome abundance comparisons between groups were made at a family level using non-parametric tests. A comparison was performed between patients on and withdrawn off of lactulose therapy using the Wilcoxon matched-pair signed rank tests. All values are presented as mean±standard deviation unless mentioned otherwise.

For the next assay, the system named is stool microbiome. The experiment in a line: Stool microbiome by multitag pyrosequencing, family level, within HE group (Example 1). The class given is in vivo, human. Set-up: normalized abundance of Streptococcaceae: unit not given here. The settings on record: HE patients. The method, then:
Interrogation of the Microbiome: Stool was collected and DNA extracted for microbiome analysis within 24 hours of collection from patients and controls using published techniques (29). We first routinely use Length Heterogeneity PCR (LH-PCR) fingerprinting of the 16S rRNA to rapidly survey our samples and standardize the community amplification. We then interrogated the microbial taxa associated with the gut fecal microbiome using Multitag Pyrosequencing (MTPS). This technique allows the rapid sequencing of multiple samples at one time yielding thousands of sequence reads per sample (12).
Microbiome Community Fingerprinting: LH-PCR was done to standardize the community analysis as previously published (21). Briefly, total genomic DNA was extracted from tissue using Bio101 kit from MP Biomedicals Inc., Montreal, Quebec as per the manufacturer's instructions. About 10 ng of extracted DNA was amplified by PCR using a fluorescently labeled forward primer 27F (5’-(6FAM) AGAGTTTGATCCTGGCTCA G-3′, SEQ ID NO: 1) and unlabeled reverse primer 355R′ (5′-GCTGCCTCCCGTAGGAGT-3′, SEQ ID NO: 2). Both primers are universal primers for Bacteria (22). The LH-PCR products were diluted according to their intensity on agarose gel electrophoresis and mixed with ILS-600 size standards (Promega) and HiDi Formamide (Applied Biosystems, Foster City, Calif.). The diluted samples were then separated on a ABI 3130x1 fluorescent capillary sequencer (Applied Biosystems, Foster City, Calif.) and processed using the Genemapper™ software package (Applied Biosystems, Foster City, Calif.). Normalized peak areas were calculated using a custom PERL script and OTUs constituting less than 1% of the total community from each sample were eliminated from the analysis to remove the variable low abundance components within the communities.
MTPS: We employed the MTPS process to characterize the microbiome from the fecal samples. Specifically, we have generated a set of 96 emulsion PCR fusion primers that contain the 454 emulsion PCR linkers on the 27F and 355R primers and a different 8 base “barcode” between the A adapter and 27F primer. Thus, each fecal sample was amplified with unique bar-coded forward 16S rRNA primers and then up to 96 samples were pooled and subjected to emulsion PCR and pyrosequenced using a GS-FLX pyrosequencer (Roche). Data from each pooled sample were “deconvoluted” by sorting the sequences into bins based on the barcodes using custom PERL scripts. Thus, we were able to normalize each sample by the total number of reads from each barcode. We have noted that ligating tagged primers to PCR amplicons distorts the abundances of the communities and thus it is critical to incorporate the tags during the original amplification step (12). Several groups have employed various barcoding strategies to analyze multiple samples and this strategy is now well accepted (38).
RDP10 Analysis: We identified the taxa present in each sample using the Bayesian analysis tool in Version 10 of the Ribosomal Database Project (RDP10). The abundances of the bacterial identifications were then normalized using a custom PERL script and taxa present at >1% of the community were tabulated. We chose this cutoff because of our a priori assumption that taxa present in <1% of the community vary between individuals and have minimal contribution to the functionality of that community and 2,000 reads per sample will only reliably identify community components that are greater than 1% in abundance (13).
The cirrhosis group was divided into those with and without HE and were compared. Data from the significant variables between HE and non-HE groups were combined in a MANOVA model. Within HE patients, comparison was made between those on lactulose alone to those with lactulose and rifaximin. Microbiome abundance comparisons between groups were made at a family level using non-parametric tests. […]

The values that follow come from patent US20140179726A1, “GUT MICROFLORA AS BIOMARKERS FOR THE PROGNOSIS OF CIRRHOSIS AND BRAIN DYSFUNCTION” (priority 2011, published 2014).

Consider `OC[C@H]1O[C@@H](O[C@@H]2[C@@H](CO)OC(O)(CO)[C@H]2O)[C@H](O)[C@@H](O)[C@H]1O` (mixture of isomers) [lactulose], for which, in assay [1] (high = good cognition), the ICT targets was 90.6 ± 8.64%, the block design came to 24.9 ± 24.8 score and the digit symbol turned out to be 36.5 ± 14.0 score. Besides, in assay [1] (high = poor cognition), the ICT lures turned out to be 17.4 ± 10.8 number, the Line drawing errors is 28.0 ± 18.6 score, the Line drawing time came out at 106.9 ± 54.5 s and the “number connection-A” value is 55.2 ± 34.1 s. In assay [1] (high = poor cognition), the “number connection-B” value was determined as 189 ± 127 s and the serial dotting was determined as 88.7 ± 29.2 s. In the assay on stool microbiome, the “normalized abundance of Alcaligenaceae” value is on record as 12.6±9%, the “normalized abundance of Bacteroidaceae” value amounted to 39±35%, the “normalized abundance of Enterobacteriaceae” value stood at 26±40% and the “normalized abundance of Lactobacillaceae” value amounted to 2±1%. Besides, in the assay with stool microbiome, the “normalized abundance of Porphyromonadaceae” value is given as 14±21%, the “normalized abundance of Prevotellaceae” value is 18±25%, the “normalized abundance of Ruminococcaceae” value is recorded as 17±22% and the “normalized abundance of Streptococcaceae” value is recorded as 4±10. For the same molecule, the “normalized abundance of Veillonellaceae” value in the assay with stool microbiome came out at 15±13%.
